Columns and labels:
LX-2 cells = test: ATP secretion from LX-2 cells; format: cell-based, human
Experimental: Cells of the immortalized human hepatic stellate cell line LX-2 (manufactured by Merck) was cultured in Dulbecco's modified Eagle's medium (DMEM, 4500 mg/l Glucose, D5796, manufactured by Sigma-Aldrich) supplemented with inactivated 2% fetal bovine serum (FBS), 10 IU/ml penicillin, and 10 IU/ml streptomycin in a T25 or T75 flask at 37° C. in 5% CO2.
LX-2 cells (2×10^6 cells per well) were seeded in a collagen-coated 6-well culture dish containing Dulbecco's modified Eagle's medium (manufactured by Sigma-Aldrich) supplemented with 10 IU/ml penicillin, […] 2% fetal bovine serum, and cultured in 5% CO2 at 37° C. After 3 days, the LX-2 cells were washed twice and preincubated in Krebs-Ringer buffer (10 mM HEPES-Tris, pH 7.4, 128 mM NaCl, 1.9 mM KCl, 1.2 mM KH2PO4, 1.3 mM MgSO4, 26 mM NaHCO3, 2.4 mM CaCl2, 10 mM glucose, 0.2% (w/v) bovine serum albumin) with or without 10 μM clodronate. The LX-2 cells were then stimulated with Krebs-Ringer buffer supplemented with ionomycin (manufactured by Cayman) regardless of whether clodronate was present or not. For the stimulation, 1 mM EGTA (manufactured by Dojindo) or 10 μM serotonin (5-HT, manufactured by Sigma-Aldrich) was used. The ATP concentration in the culture supernatant was measured in the same manner as in Example 6.
For an siRNA experiment, a TriFECTa (trademark) RNAi Kit (manufactured by Integrated DNA Technologies) was used. A scramble RNA (scRNA) as a control siRNA, or a VNUT-specific siRNA, was incubated with Lipofectamine 3000 reagent (manufactured by Invitrogen) in OptiMEM reduced-serum medium (#31985070, manufactured by Gibco) at room temperature for 15 minutes, and then added directly to the cultured cells. The LX-2 cells as the transfection mixture were plated, and then cultured for 48 hours. The base sequences of VNUT siRNA forward and VNUT siRNA reverse, used for the above kit, are shown in SEQ ID NOs: 1 and 2, respectively. A positive control for an endogenous gene (#51-01-08-02) and a negative control (#51-01-14-03) were used.

[1] = tested on: chromaffin granule membrane; test: ATP transport (uptake of radiolabeled ATP) in chromaffin granule membrane vesicles; format: biochemical, cattle; details: role: inhibitor, 1 mM 3H-ATP
Experimental: Chromaffin granule membranes were prepared from adrenal glands collected from slaughtered cattle according to Reference A (Nathan Nelson et al., 1988, Chromaffin Granule Proton Pump, Methods in Enzymology, 157, 619-633). Chromaffin granule membranes prepared by sucrose density gradient centrifugation were suspended in 2 ml of SME buffer (20 mM MOPS-tris (pH 7.0), 0.3 M sucrose, 5 mM EDTA, 10 μg/ml leupeptin, and 10 μg/ml pepstatin)+25% glycerol, and the resulting suspension was aliquoted and stored at −80° C. Under these conditions, the ATP transport activity, the V-ATPase activity, and the catecholamine transport activity remain fully active for at least one year.
An ATP transport inhibition experiment for the chromaffin granule membrane was carried out according to Reference B (Yoshinori Moriyama et al., 2022, Is the vesicular nucleotide transporter a molecular target of eicosapentaenoic acid?, Frontiers in Pharmacology, 103389). About 20 μg of chromaffin granule membranes were added to 0.5 ml of measurement buffer (20 mM MOPS-tris (pH 7.0), 0.3 M sucrose, 5 mM potassium chloride, 5 mM magnesium acetate, 5 mM creatine phosphate, 10 units of creatine kinase, and 1 mM 3[H]-ATP [15 KBq/assay]), followed by incubation at 30° C. for 1 hour. Through a Millipore MCE membrane filter with a pore size […], 0.2 ml of the reaction liquid was filtered by suction. Thereafter, the filter was washed with 10 ml of 20 mM MOPS-tris (pH 7.0), 0.3 M sucrose, 5 mM potassium chloride, and 5 mM magnesium acetate, and dissolved in 10 ml of Clear-sol II (manufactured by Nacalai Tesque, Inc.). The radioactivity was then measured using a liquid scintillation counter (N=3).
The reaction was initiated by adding 50 mM ^3[H]-ATP to a final concentration of 1 mM. The 50 mM ^3[H]-ATP was prepared by mixing an ATP-tris solution (manufactured by Sigma-Aldrich) with [2,8-^3H]adenosine triphosphate tetrasodium salt (26.0 Ci/mmol) (manufactured by New England Nuclear). PEP was used as a test reagent, and pyruvic acid was used as a negative control. Five minutes before the addition of ATP, PEP or pyruvic acid, as a solution in 20 mM MOPS-tris (pH 7.0), 0.3 M sucrose, 5 mM potassium chloride, and 5 mM magnesium acetate, was added to the measurement liquid to a final PEP concentration of 0.02, 0.05, 0.1, 0.2, 0.4, or 1 mM, or to a final pyruvic acid concentration of 0.5 or 1 mM.
Chromaffin granule membrane vesicles were prepared in the same manner as in Example 5, and uptake of radiolabeled ATP into the vesicles was measured. Transport activity of catecholamine (dopamine) and ATP-dependent proton transport by V-ATPase were also measured in the same manner as in Example 5.

[2] = tested on: human epidermal keratinocytes; test: ATP secretion from human epidermal keratinocytes promoted by ionomycin; format: cell-based; details: 5 μM ionomycin as stimulant, keratinocytes
Experimental: Human epidermal keratinocytes (Cryopreserved HEK, Lot 1758, Cell Applications Inc.) were cultured using an Epivita Keratinocyte Growth Medium Kit according to the manufacturer's instructions. The procedure was as follows. A supplement medium was added to a hydrocortisone-containing basal medium included in the medium preparation kit to prepare a complete medium. The medium in the dish was removed by aspiration. The cells were washed with 5 ml of BSS (Gbco), and then the BSS was removed by aspiration. After addition of 5 to 6 ml of trypsin/EDTA solution (Gbco), the dish was incubated at 37° C. for 2 minutes. After addition of 5 ml of trypsin neutralization solution, the resulting cell suspension was transferred into two 15-ml Falcon tubes, and centrifuged at 200×g for 5 minutes. The supernatant was removed by aspiration, and the pelleted cell cluster was suspended in 2 ml of the medium at 4.5×10^5 cells/ml. An aliquot of the resulting cell suspension was cryopreserved, while another aliquot was cultured and subjected to measurement.
ATP secretion by human epidermal keratinocytes (hereinafter referred to as “keratinocytes”) was measured. Regarding control solutions, Krebs-Ringer HEPES supplemented with 0.2% BSA and 25 mM glucose (hereinafter also referred to as “Krebs/Iono(−)”) was used as a negative control, and a solution prepared by adding 5 μM ionomycin to this solution (hereinafter also referred to as “Krebs/Iono(+)”) was used as a positive control for ATP secretion. Ionomycin is a Ca^2+ ionophore. Addition of ionomycin to cells is known to promote influx of extracellular Ca^2+ into the cells to increase the intracellular Ca^2+ concentration, resulting in enhancement of ATP secretion. Test solutions were prepared by adding clodronate to Krebs/Iono(−) or Krebs/Iono(+) to a final concentration of 0.1 μM (hereinafter also referred to as “Clo/Iono(−)” or “Clo/Iono(+)”, respectively) (N=3).
Keratinocytes were cultured at 2.5×10^4 cells/well in a 24-well plate at 37° C. in 5% CO2 for 4 days. The medium was removed by aspiration, replaced with Krebs/Iono(−) or Clo/Iono(−), and incubated at 37° C. for 6 hours. These solutions were then removed by aspiration, and the content of each well incubated with Krebs/Iono(−) was replaced with 300 μl of a control solution (Krebs/Iono(−) or Krebs/Iono(+)), while the content of each well incubated with Clo/Iono(−) was replaced with 300 μl of a test solution (Clo/Iono(−) or Clo/Iono(+)). After further incubation at 37° C. for 20 minutes, 200 μl of the supernatant was collected. The collected supernatant was immediately treated on a heat block at 95° C. for 10 minutes, to inactivate ectonucleotidase. ATP in the supernatant was quantified using a Dojindo ATP assay kit−Luminescence (manufactured by Dojindo Laboratories).
Keratinocytes were cultured in the same manner as in Example 1, and ATP secretion from the keratinocytes was measured. Krebs/Iono(−), or a solution prepared by adding 10 μM imeglimin, 0.1 μM eicosapentaenoic acid (EPA), 1 μM EPA, or 10 μM clodronate to Krebs/Iono(−) was used (N=4).
After culturing keratinocytes, the medium was removed by aspiration, and replaced with Krebs/Iono(−), or Krebs/Iono(−) supplemented with 10 μM imeglimin, 0.1 μM EPA, 1 μM EPA, or 10 μM clodronate, followed by incubation for 6 hours. Subsequently, the solution was replaced with either a control solution (Krebs/Iono(−) or Krebs/Iono(+)) or a test solution (Krebs/Iono(+) supplemented with 10 μM imeglimin, 0.1 μM EPA, 1 μM EPA, or 10 μM clodronate), followed by incubation at 37° C. for 20 minutes and then collection of 200 μl of the supernatant. The collected supernatant was immediately treated on a heat block at 95° C. for 10 minutes to inactivate ectonucleotidase. ATP in the supernatant was quantified using a Dojindo ATP assay kit—Luminescence (manufactured by Dojindo Laboratories). […]

mouse auricle = test: Imiquimod-induced psoriasis model, comparison with an anti-TNFα antibody (Example 19); format: in vivo; details: imeglimin 40 mg/kg oral daily or infliximab 100 μg/mouse i.v. Days 1, 3, 5
Experimental: The dorsal hair of mice was shaved and depilated (Day 0). To each of the left auricle and the depilated back of each mouse, 62.5 mg of 5% imiquimod cream (Beselna Cream 5%) was applied once daily a total of seven times (Days 1 to 7) in accordance with Example 18, to induce imiquimod-induced psoriasis (IMQ group). In the IMQ+IMG group, mice received oral administration of imeglimin (40 mg/kg) once daily (Day 1 to 7) after the imiquimod application. […] Thickness of the auricle was measured, and the degrees of erythema, desquamation, and infiltration in the affected area were rated on Days 1, 3, 5, 7, and 8 according to the PASI scoring of the DermNET Dermatology Resource (none: 0, mild: 1, moderate: 2, severe: 3, and very severe: 4). The resulting values were used to calculate the PASI score.
Further, for an auricle excised on Day 8, immunohistochemical staining was performed in the same manner as in Example 18, and auricular sections were imaged using a fluorescence microscope (BZ-X710; manufactured by Keyence Corporation).

Q: How did the “ATP secretion from the LX-2 cells” value (LX-2 cells; 10 μM serotonin (5-HT) (FIG. 25)) turn out when NCCc1c[nH]c2ccc(O)cc12 [5-HT, serotonin] was run?
A: Its value is “promoted ATP secretion”.

Q: Which “ionomycin-induced ATP secretion” value (LX-2 cells; 1 mM EGTA, chelating of Ca2+, N=6 (FIG. 21)) does the source give for O=C(O)CN(CCOCCOCCN(CC(=O)O)CC(=O)O)CC(=O)O [EGTA] here?
A: The value was “strongly inhibited”.

Q: C[C@H](O)C(=O)O [L-lactic acid] was tested. Which “inhibitory activity on ATP transport” value [1] did it give?
A: Its value is “no inhibitory activity was found”.

Q: Which “inhibitory activity on ATP transport” value [1] does the source give for NC(=O)c1ccc[n+]([C@@H]2O[C@H](COP(=O)([O-])OP(=O)(O)OC[C@H]3O[C@@H](n4cnc5c(N)ncnc54)[C@H](O)[C@@H]3O)[C@@H](O)[C@H]2O)c1 [NAD+] here?
A: Its value is “no inhibitory activity was found”.

Q: For CC(=O)SCCNC(=O)CCNC(=O)[C@H](O)C(C)(C)COP(=O)(O)OP(=O)(O)OC[C@H]1O[C@@H](n2cnc3c(N)ncnc32)[C@H](O)[C@@H]1OP(=O)(O)O [acetyl-CoA], which “inhibitory activity on ATP transport” value [1] is on record?
A: Its value is “no inhibitory activity was found”.

Q: For O=C(O)CC(O)(CC(=O)O)C(=O)O [citric acid], which “inhibitory activity on ATP transport” value [1] is on record?
A: The value was “no inhibitory activity was found”.

Q: With O=C(CO)[C@@H](O)[C@H](O)[C@H](O)COP(=O)(O)O [fructose-6-phosphate] as the molecule, how does the “inhibitory activity on ATP transport” value [1] read?
A: Its value is “no inhibitory activity was found”.

Q: With O=C[C@H](O)[C@@H](O)[C@H](O)[C@H](O)COP(=O)(O)O [glucose-6-phosphate] as the molecule, how does the “inhibitory activity on ATP transport” value [1] read?
A: The value was “no inhibitory activity was found”.

Q: C[C@H](CCC(=O)O)C[C@H](C)C[C@H](C)C(=O)/C=C(\O)[C@H](C)C[C@H](C)C/C=C/[C@@H](C)[C@@H](O)[C@@H](C)[C@@H](O)C[C@@H]1CC[C@@](C)([C@H]2CC[C@@](C)([C@@H](C)O)O2)O1 [ionomycin] was tested. Which “secretion of ATP by the LX-2 cells over time” value (LX-2 cells; ionomycin, N=3 (FIG. 20)) did it give?
A: Its value is “increased secretion of ATP”.

Q: And the ATP secretion [2]?
A: Its ATP secretion is “promotes ATP secretion”.

Q: With O=C(O)C[C@H](O)C(=O)O [malic acid] as the molecule, how does the “inhibitory activity on ATP transport” value [1] read?
A: The value was “no inhibitory activity was found”.

Q: With O=C(O)CC(=O)C(=O)O [oxaloacetic acid] as the molecule, how does the “inhibitory activity on ATP transport” value [1] read?
A: Its value is “no inhibitory activity was found”.

Q: What does the source list for CC(=O)C(=O)O [pyruvic acid]?
A: inhibitory activity on ATP transport [1]: no inhibitory activity was found; inhibition of ATP transport ([1]; up to 1 mM pyruvic acid): did not inhibit ATP transport

Q: “infliximab: infliximab (manufactured by Nichi-Iko Pharmaceutical Co., Ltd.), an anti-TNFα antibody as an existing drug” was tested. Which “erythema (excepted from the symptoms reduced)” value (mouse auricle; N=5 (FIG. 38)) did it give?
A: The value was “except erythema”.

Q: What about the “typical psoriatic symptoms induced by imiquimod, except erythema (thickness, desquamation, infiltration, PASI score)” value (mouse auricle; N=5 (FIGS. 37-41)) of the same molecule?
A: The value was “reduced”.

From US20260306500A1, “METHOD OF INHIBITING ADENOSINE TRIPHOSPHATE SECRETION, METHOD OF INHIBITING HEPATIC STELLATE CELL ACTIVATION, METHOD OF DEACTIVATING HEPATIC STELLATE CELL, METHOD OF TREATING HEPATIC FIBROSIS, METHOD OF TREATING NON-ALCOHOLIC STEATOHEPATITIS, AND METHOD OF TREATING PSORIASIS” (Kurume University, priority 2023, published 2026)
